# Patent US20260069656A1, “Nutritive Polypeptides and Formulations Thereof, and Methods of Production and Use Thereof” (Axcella Health Inc., priority 2013, published 2026)
# What was measured:
# GLP-2 = test: Total GLP-2 ELISA, plasma GLP-2 in healthy fasted rats; format: in vivo, rat
# Description: Animals were treated and acutely dosed with test articles as part of pharmacokinetic rodent experiments according to methods described herein. In this experiment, two test articles were analyzed, vehicle and a nutritive formulation of SEQID-240, dosed at 1.54 g/kg.
# Total GLP-2 was measured with Millipore Total GLP-2 ELISA Kit (Millipore, EZGLP2-37K). The ELISA kit was equilibrated to room temperature for a minimum of 30 minutes prior to running the assay. The kit GLP-2 Standard, Quality Control 1 and Quality Control 2 were reconstituted with 500 μL MilliQ water, inverted 5 times and incubated at room temperature for 5 minutes, then gently vortexed to mix. The standard curve was prepared by diluting the GLP-2 Standard serially 1:1 in kit Assay Buffer to generate an eight point standard curve including 0 ng/mL GLP-2. Plasma samples were thawed on ice and centrifuged for 10 minutes at approximately 1109× rcf to pellet insoluble material. Fasted plasma matrix from untreated, fasted rat was prepared for running the standard and quality controls in duplicate at 20% (2×).
# 1× Wash Buffer was prepared in a clean 500 mL glass bottle by combining 50 mL 10× Wash Buffer with 450 mL MilliQ water. Strips were prepared by washing 3 times with 300 μL 1× Wash Buffer applied with a 30-300 μL 8-channel pipette. Between washes the wash buffer was decanted into a waste receptacle and the plate tapped sharply on a stack of paper towels to remove remaining wash buffer.
# Following the first wash, 90 μL of Assay Buffer was added to sample wells, and 50 μL of 20% matrix in Assay Buffer was added to all standard and quality control wells. 10 μL of sample was added to each sample well and 50 μL of standard and quality control were added to matrix containing wells. Samples, standards and quality control wells were run in duplicate, except for 0 ng/mL GLP-2 standard which was run in quadruplicate.
# The plate was sealed with a plastic plate seal and incubated at room temperature on a horizontal plate shaker at 450 rpm for 2 hours. Following the first incubation, the plate was washed three times with 1× Wash Buffer, decanting into a waste receptacle and tapping the inverted plate sharply on a stack of paper towels to remove excess wash buffer after each wash.
# 100 μL of Detection Antibody was added to each well and the plate was sealed with a plastic plate seal and incubated at room temperature on a horizontal plate shaker at 450 rpm for 1 hour. […]
# Absorbance was measured on a SynergyMX Plate Reader at 450 nm and 590 nm. Measured values were the difference between 450 nm and 590 nm absorbance values.
# Data were analyzed with GraphPad Prism 6.03. […]
# [1] = Rat pharmacokinetic studies, plasma amino acids by HPLC; settings: oral administration to rats
# Description: Rat pharmacokinetic studies. Male Sprague Dawley rats with indwelling jugular vein cannula (JVC) were purchased from Harlan Laboratories and acclimated to the Test Facility (Agilux Laboratories) for at least two days prior to study initiation. Prior to dose administration animals were fasted overnight (11-13 h) and remained fasted until completion of the study. Test articles were orally administered via a bulb-tipped 18 gauge stainless steel gavage needle attached to a syringe. The weight of all dose syringes were recorded prior to and following dosing to more accurately determine the amount of solution dosed. Serial blood samples (˜300 μL) were collected from the JVC at time 0 (pre-dose) and 0.25, 0.5, 1, 2, and 4 h post-dose. Blood samples were collected into tubes containing the anti-coagulant K2EDTA, a general protease inhibitor cocktail (Sigma P8340, diluted 1:100 in whole blood), and a DPP IV inhibitor (Millipore DPP4, diluted 1:100 in whole blood). Immediately following blood collection tubes were vortexed and stored on wet ice until processing to plasma by centrifugation (3,500 rpm at 5° C.) within 1 h of collection. Plasma samples were then transferred into new tubes and stored at −80° C.
# The concentration of Glu, Ser, His, Gly, Thr, Arg, Ala, Tyr, Val, Met, Phe, Ile, Leu, and Lys in the plasma samples was determined by HPLC amino acid analysis, as described herein. Prior to HPLC amino acid analysis, insoluble particles were removed from plasma samples by centrifugation (1100×g at 4° C.) for 10 min. A 25 μL sample of the soluble fraction was then transferred to a 96-well plate, for some samples an internal standard (Norvaline, Agilent) was added to each plasma sample at final concentration of 0.5 mM.
# [2] = Solubility of proteins (lyophilized/reconstituted or ultrafiltered); settings: produced in E. coli unless otherwise noted
# Description: Solubility. […] Protein samples were dried by lyophilization on a FreeZone Freeze Dry System (Labconco) using the manufacturer's standard protocol and then resuspended in buffer to the desired concentration. Centrifugal and tangential ultrafiltration were used to selectively remove buffer from the protein sample until the desired concentration was reached. Centrifugal ultrafiltration of protein solutions was performed by centrifugation (10,000×g) of 10 mg of protein in an Amicon centrifugal filter (Millipore) with a molecular weight cutoff of 3 kDa, 10 kDa, or 30 kDa, depending on the protein size, until the desired contrentration was reached. Ultrafiltration of protein solutions was performed on Hydrosart ultrafiltration cassettes (Sartorius Stedim, Bohemia, NY) with a molecular weight cutoff of 3 kDa, 10 kDa, or 30 kDa, depending on the protein size, at a cross flow rate of 12 L/m2/min. For most processes, transmembrane pressure was maintained at 20 psi and performed until the desired contrentration was reached.
# The protein concentration of the above samples was measured by one or a combination of the following methods: Coomassie Plus Protein Assay, absorbance at 280 nm (A280), and total amino acid analysis. Coomassie Plus Protein Assays (Pierce) were performed according to the manufacturer's protocol. Absorbance at 280 nm was measured on a Nanodrop 2000 UV-Vis spectrophotometer. Protein concentration was determined using the A280 value and molar extinction coefficient, which was calculated by primary amino acid sequence using ProtParam (Gasteiger, Elisabeth, et al. The proteomics protocols handbook. Humana Press, 2005. 571-607.). Total amino acids were analyzed by HPLC after acid hydrolysis as described in Henderson, J. W., et al. Agilent Technologies (2010).
substance,measurement,setting,value
"SEQID-00240: nutritive polypeptide naturally produced in Cow, recombinantly expressed in E. coli (DLEGSLEQEKKLRMDLERAKRKLEGDLKLAQESTMDIENDKQQLDEKLKK; listed as Bos taurus)",GLP-2 area under curve vs vehicle,"GLP-2; 0-60 minutes, P<0.005",significantly greater in the SEQID-00240 treatment compared to vehicle
same,GLP-2 area under curve vs vehicle,"GLP-2; 0-240 minutes, P<0.01",significantly greater in the SEQID-00240 treatment compared to vehicle
same,total GLP-2 concentration vs vehicle,"GLP-2; 1.54 g/kg, at 15, 30, 60 and 120 minutes following treatment",statistically significantly greater than vehicle
same,total GLP-2 concentration relative to time 0,"GLP-2; 1.54 g/kg, at 15, 30 and 60 minutes following gavage",statistically significant increase in GLP-2 concentration relative to time 0
same,plasma Phe concentration,[1],causing no flux in plasma Phe concentration
same,change in AUC0-4 h for plasma Lys,[1]; doses of Table E33A,increased the change in AUC0-4 h for plasma Lys
same,Solubility,[2],163 mg/mL
